Reference: US20230100235A1, “ANTICANCER AGENT COMPOSITION” (CARNA BIOSCIENCES, INC., priority 2020, published 2023)

Test system: OCI-Ly10 cells
Test: Combined effect of BTK inhibitor and BCL-2 inhibitor by BLISS score, OCI-Ly10
Format: cell-based, Human
Conditions: combination with venetoclax, 8×8 matrix, positive = synergistic
Experimental: The BLISS score is one of the criteria used to evaluate synergistic effects in combination of agents (Borisy et al. Proc. Natl. Acad. Sci. USA., 100(13): 7977-7982 (2003); Griner et al. Proc. Natl. Acad. Sci. USA., 111(6): 2349-54 (2014)). This BLISS score was used to analyze the combined effect of a BTK inhibitor and a BCL-2 inhibitor in terms of proliferation inhibition to OCI-Ly10 cells.
After 96 hours of culture, an Alamar Blue reagent was added, and 3 hours later, fluorescence of excitation wavelength 560 nm/fluorescence wavelength 590 nm was measured. Cell proliferation inhibition rate and viability (100−inhibition rate %) were determined by setting a compound-free and cell-free well as 100% and a compound-free and cell-containing well as 0%.
Theoretical BLISS independence (BLISSin) for each well can be calculated from the following formula when agent A and agent B each are thought to have acted as a single agent (i.e., cell proliferation rate when the concentration of either one compound is 0). G is cell viability.
BLISS score for each well can be derived from a difference between the theoretical BLISSin and a measured value of cell proliferation rate. If the BLISS score is a positive number, it is considered that a synergistic effect is present.
BLISS score=100×(BLISSin−G)

Nc1nc(-c2cccc(-n3ccc4cc(C5CC5)cc(F)c4c3=O)c2CO)c2cc(C3=CCN(C4COC4)CC3)[nH]c2n1 [Compound (I-A), 2-(3-{2-amino-6-[1-(oxetan-3-yl)-1,2,3,6-tetrahydropyridin-4-yl]-7H-pyrrolo[2,3-d]pyrimidin-4-yl}-2-(hydroxymethyl)phenyl)-6-cyclopropyl-8-fluoroisoquinolin-1(2H)-one]
BLISS score: positive values
